Laboratory results as given in US20180273528A1 (LES LABORATOIRES SERVIER, priority 2015, published 2018).

Tests used:
Format in all cases: biochemical
[1] = target: T1, His-TEV-DYRK1A Kinase domain (aa127-485) (Homo sapiens, UniProt Q13627); assay: Kinase ADP assay (ADP Hunter), DYRK1A kinase domain; details: 20 μM ATP
T1 construct: His-TEV-DYRK1A Kinase domain (aa127-485); His tag (N); TEV protease cleavage site (N)
How it was run: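 Readout is ADP Hunter fluorescence at 590 nm, developed 20 min at 30 °C after the kinase step. That step ran 10 min at 30 °C in Hepes pH 7.4 (10 mM MgCl2, 1 mM EGTA, 0.02% Tween20) containing 20 μM ATP, 40 μM peptide and 20 nM enzyme plus compound.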

DYRK1B = target: T2, DYRK1B (Homo sapiens, UniProt Q9Y463); assay: Kinase TR-FRET assay, DYRK1B; details: full-length human kinase, 10 μM ATP
T2 construct: full-length human kinases from Carna Biosciences; purchased Carna Biosciences 04-131
T2 sequence (Q9Y463 whole entry): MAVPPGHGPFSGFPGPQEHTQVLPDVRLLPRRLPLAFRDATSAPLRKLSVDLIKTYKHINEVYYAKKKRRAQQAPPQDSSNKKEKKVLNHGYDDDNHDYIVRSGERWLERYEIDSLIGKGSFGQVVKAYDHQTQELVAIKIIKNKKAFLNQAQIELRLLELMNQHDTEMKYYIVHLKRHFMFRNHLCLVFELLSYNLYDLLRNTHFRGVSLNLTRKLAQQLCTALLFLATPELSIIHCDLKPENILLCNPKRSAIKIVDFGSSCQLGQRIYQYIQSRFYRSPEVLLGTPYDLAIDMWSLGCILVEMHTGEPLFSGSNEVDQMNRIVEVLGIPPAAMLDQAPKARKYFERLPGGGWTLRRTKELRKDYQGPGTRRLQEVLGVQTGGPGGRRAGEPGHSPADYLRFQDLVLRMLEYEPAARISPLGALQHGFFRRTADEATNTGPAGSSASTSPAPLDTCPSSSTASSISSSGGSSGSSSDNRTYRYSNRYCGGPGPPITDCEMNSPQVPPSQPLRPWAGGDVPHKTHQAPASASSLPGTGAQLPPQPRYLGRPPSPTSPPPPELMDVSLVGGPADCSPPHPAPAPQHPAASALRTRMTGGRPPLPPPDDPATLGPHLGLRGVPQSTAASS
How it was run: (§1)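 Compounds tested at 0.1 nM to 30 μM in reaction buffer; reaction stopped with 10 mM EDTA. Phosphorylated MBP detected with 1 nM Europium-labelled anti-phospho-Thr232 antibody by TR-FRET.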

CLK1 = target: T3, CLK1 (Homo sapiens, UniProt P49759); assay: Kinase TR-FRET assay, CLK1; details: full-length human kinase, 10 μM ATP
T3 construct: full-length human kinases from Carna Biosciences; purchased Carna Biosciences 04-126
T3 sequence (P49759 1-526 isoform P49759-3): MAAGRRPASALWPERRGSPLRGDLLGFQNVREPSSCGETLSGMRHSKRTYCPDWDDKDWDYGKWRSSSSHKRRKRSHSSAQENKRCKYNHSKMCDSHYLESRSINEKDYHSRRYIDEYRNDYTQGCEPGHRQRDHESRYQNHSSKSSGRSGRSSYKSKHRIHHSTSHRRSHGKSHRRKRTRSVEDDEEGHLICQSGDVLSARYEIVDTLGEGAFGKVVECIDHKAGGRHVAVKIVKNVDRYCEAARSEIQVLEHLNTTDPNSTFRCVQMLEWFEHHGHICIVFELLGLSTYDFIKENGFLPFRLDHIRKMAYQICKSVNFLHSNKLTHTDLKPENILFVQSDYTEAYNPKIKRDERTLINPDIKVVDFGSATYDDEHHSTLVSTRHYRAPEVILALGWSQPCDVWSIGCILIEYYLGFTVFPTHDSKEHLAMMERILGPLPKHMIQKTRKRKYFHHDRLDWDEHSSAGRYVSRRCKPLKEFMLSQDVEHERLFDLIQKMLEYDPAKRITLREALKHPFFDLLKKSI
How it was run: as §1

CDK9 = target: T4, CDK9 (Homo sapiens, UniProt P50750); assay: Kinase TR-FRET assay, CDK9; details: full-length human kinase, 10 μM ATP
T4 construct: full-length human kinases from Carna Biosciences; purchased Carna Biosciences 04-110
T4 sequence (P50750 whole entry): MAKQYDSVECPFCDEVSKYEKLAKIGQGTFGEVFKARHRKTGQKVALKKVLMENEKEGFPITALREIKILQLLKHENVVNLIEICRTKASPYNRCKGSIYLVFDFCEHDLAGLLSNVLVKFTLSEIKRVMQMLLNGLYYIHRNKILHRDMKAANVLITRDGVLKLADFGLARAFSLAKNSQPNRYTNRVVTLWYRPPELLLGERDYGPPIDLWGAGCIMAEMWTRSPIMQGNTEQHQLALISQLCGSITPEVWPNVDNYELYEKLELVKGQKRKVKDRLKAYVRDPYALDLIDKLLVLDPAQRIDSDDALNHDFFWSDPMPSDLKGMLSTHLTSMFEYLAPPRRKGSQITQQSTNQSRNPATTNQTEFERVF
T4 sequence (O60563 whole entry partner): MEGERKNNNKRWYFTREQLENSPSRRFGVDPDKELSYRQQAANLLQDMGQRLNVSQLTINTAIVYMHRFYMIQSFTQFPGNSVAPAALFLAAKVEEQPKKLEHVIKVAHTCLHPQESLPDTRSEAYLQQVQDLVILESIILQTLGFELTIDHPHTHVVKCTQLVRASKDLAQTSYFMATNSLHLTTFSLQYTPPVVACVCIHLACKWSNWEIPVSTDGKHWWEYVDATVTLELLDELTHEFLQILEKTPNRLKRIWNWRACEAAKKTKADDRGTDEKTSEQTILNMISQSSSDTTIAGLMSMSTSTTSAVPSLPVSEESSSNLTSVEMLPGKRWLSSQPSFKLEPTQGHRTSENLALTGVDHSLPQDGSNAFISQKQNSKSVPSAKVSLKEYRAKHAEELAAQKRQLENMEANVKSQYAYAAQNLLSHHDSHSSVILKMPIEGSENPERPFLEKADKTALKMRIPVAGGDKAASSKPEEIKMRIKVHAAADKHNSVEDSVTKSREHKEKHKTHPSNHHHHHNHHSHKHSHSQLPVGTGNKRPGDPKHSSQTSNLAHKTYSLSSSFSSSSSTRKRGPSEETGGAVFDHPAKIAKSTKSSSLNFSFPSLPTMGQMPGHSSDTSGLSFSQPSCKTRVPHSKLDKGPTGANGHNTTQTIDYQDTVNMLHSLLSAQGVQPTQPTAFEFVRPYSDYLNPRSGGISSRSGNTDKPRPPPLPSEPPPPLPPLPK
How it was run: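 Full-length human CDK9 (0.9 ng/μl) incubated 100 min at room temperature with 10 μM ATP, 100 nM ULight-MBP peptide and compound (0.1 nM–30 μM) in 50 mM HEPES pH 7.4, 1 mM EGTA, 10 mM MgCl2, 2 mM DTT, 0.01% Tween20. Stopped with 10 mM EDTA, then 1 nM Eu-anti-phospho-Thr232 MBP antibody added for 1 h. TR-FRET read at 665/620 nm with 340 nm excitation.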

DYRK1A = DYRK1A (Homo sapiens, UniProt Q13627); assay: Kinase TR-FRET assay, DYRK1A; parameters: full-length, wild-type human DYRK1A (NM_001396) with an HA tag; expressed in transfected cells; host or cells: human U2-OS osteosarcoma cells, transient transfection of a pcDNA3.1 plasmid; details: full-length human kinase, 10 μM ATP
How it was run: as §1

**Q.** Cc1nc2ccc(-c3cc(N)nc(N)c3)nc2n1C[C@@H](C)Oc1ccccc1 (single isomer, unassigned) [Example 106] was tested. Which IC50 [1] did it give?
**A.** 0.012 µM

**Q.** And the IC50 (DYRK1B)?
**A.** 0.006 µM

**Q.** What about the IC50 (CLK1) of the same compound?
**A.** 0.019 µM

**Q.** What about the IC50 (CDK9) of the same compound?
**A.** > 3 µM

**Q.** What about the IC50 (DYRK1A) of the same compound?
**A.** 0.008 µM

**Q.** What does the source list for Cc1nc2ccc(-c3cc(N)nc(N)c3)nc2n1C1CC1 [Example 9, 4-(3-cyclopropyl-2-methyl-3H-imidazo[4,5-b]pyridin-5-yl)pyridine-2,6-diamine]?
**A.** IC50 [1]: 0.007 µM; IC50 (DYRK1B): 0.006 µM; IC50 (CLK1): 0.021 µM; IC50 (CDK9): 2.15 µM; IC50 (DYRK1A): 0.011 µM

**Q.** With Cc1nc2ccc(-c3cc(N)nc(N)c3)nc2n1Cc1ccoc1 [Example 42, 4-[3-(furan-3-ylmethyl)-2-methyl-3H-imidazo[4,5-b]pyridin-5-yl]pyridine-2,6-diamine] as the compound, how does the IC50 [1] read?
**A.** 0.008 µM

**Q.** What about the IC50 (DYRK1B) of the same compound?
**A.** 0.01 µM

**Q.** And the IC50 (CLK1)?
**A.** 0.053 µM

**Q.** And the IC50 (CDK9)?
**A.** 2.94 µM

**Q.** And the IC50 (DYRK1A)?
**A.** 0.012 µM

**Q.** How did the IC50 [1] turn out when Cc1nc2ccc(-c3cc(N)nc(N)c3)nc2n1CCCC(F)(F)F [Example 71, 4-[2-methyl-3-(4,4,4-trifluorobutyl)-3H-imidazo[4,5-b]pyridin-5-yl]pyridine-2,6-diamine] was run?
**A.** 0.006 µM

**Q.** And the IC50 (DYRK1B)?
**A.** 0.006 µM

**Q.** What about the IC50 (CLK1) of the same compound?
**A.** 0.016 µM

**Q.** What about the IC50 (CDK9) of the same compound?
**A.** 1.41 µM

**Q.** And the IC50 (DYRK1A)?
**A.** 0.006 µM

**Q.** Which results are given for Cc1nc2ccc(-c3cc(N)nc(N)c3)nc2n1C1CC(F)(F)C1 [Example 101, 4-[3-(3,3-difluorocyclobutyl)-2-methyl-3H-imidazo[4,5-b]pyridin-5-yl]pyridine-2,6-diamine]?
**A.** IC50 [1]: 0.006 µM; IC50 (DYRK1B): 0.007 µM; IC50 (CLK1): 0.016 µM; IC50 (CDK9): 1.26 µM; IC50 (DYRK1A): 0.003 µM

**Q.** Which IC50 [1] does the source give for Cc1nc2ccc(-c3cc(N)nc(N)c3)nc2n1C1CC(F)C1 (centres unmarked) [Example 103, 4-[3-(3-fluorocyclobutyl)-2-methyl-3H-imidazo[4,5-b]pyridin-5-yl]pyridine-2,6-diamine] here?
**A.** 0.006 µM

**Q.** What about the IC50 (DYRK1B) of the same compound?
**A.** 0.005 µM

**Q.** What about the IC50 (CLK1) of the same compound?
**A.** 0.015 µM

**Q.** And the IC50 (CDK9)?
**A.** 0.666 µM

**Q.** And the IC50 (DYRK1A)?
**A.** 0.006 µM

**Q.** For CCn1c(C)nc2ccc(-c3cc(N)nc(N)c3)nc21 [Example 154, 4-(3-ethyl-2-methyl-3H-imidazo[4,5-b]pyridin-5-yl)pyridine-2,6-diamine], which IC50 [1] is on record?
**A.** 0.007 µM

**Q.** And the IC50 (DYRK1B)?
**A.** 0.002 µM

**Q.** What about the IC50 (CLK1) of the same compound?
**A.** 0.023 µM

**Q.** And the IC50 (CDK9)?
**A.** 3.39 µM

**Q.** What about the IC50 (DYRK1A) of the same compound?
**A.** 0.004 µM
